Data set [1] addresses HSA (Homo sapiens, UniProt P02768). Nature of the data set: in vitro. The format is in vitro ADME. The note with it: HSA (human serum albumin), read-out: % bound to protein (converted); for fraction unbound at 1.5 μM: concentration 1.5 μM; for fraction unbound at 3 μM: concentration 3.0 μM. How it is done: Using a dialysis-based protein binding assay according to the method described in Cohen, Plasma Protein-Binding Methods in Drug Discovery in OPTIMIZATION IN DRUG DISCOVERY: IN VITRO METHODS, Yan & Caldwell, eds., pp. 111-122 (Humana Press, Totowa, N.J., 2004), which is hereby incorporated by reference as though set forth herein in its entirety. The percentage of PTX-FA18 and the percentage of octadecanedioic acid (C18 Diacid) bound to the protein at different concentrations was measured.

Data set [2] concerns HeLa cells. The data set is described as follows: In vitro cytotoxicity, CellTiter Blue cell viability. Conditions: 3 days. The format is cell-based. The procedure: HeLa cells were obtained from ATCC and incubated at 37° C. at 5% CO2 using DMEM supplemented with 10% FBS, and 1× of sodium pyruvate, non-essential amino acids, L-glutamine and antibiotics.
Cytotoxicity of compounds was evaluated using the CellTiter Blue assay (Promega). HeLa cells were plated in 96-well plates, at a density of 3000 cells/well 1 day before treatment. Treatments were prepared as 1000× serial stock dilutions in DMSO, then diluted into media for 1×, 0.1% DMSO treatment solutions. Plating media was removed, then treatments were added to the wells. After 3 days, the media was removed and replaced with 100 uL complete DMEM without phenol red. Then 20 uL of CellTiter Blue reagent was added, and the plates incubated for two hours at 37° C. Fluorescence was measured at 590 nm with excitation at 560 nm. To determine viability, average background fluorescence was subtracted from average fluorescence readings of the experimental wells (three wells per treatment concentration). Viability was calculated as the average background-subtracted signal in a well compared to that of a negative control well (treatment with 0.1% DMSO/media).
Viabilities were fit in GraphPad Prism using a non-linear, dose-dependent inhibition curve. The IC50 numbers given in the table reflect the concentration at which the cell death is 50% of the maximum response.
(The colour change of resazurin is a common sign of viable cells or microbes.)

Setting [3] is: Homo sapiens, 72 h, average of at least 3 replicates.

Chain of HSA (P02768 25-609): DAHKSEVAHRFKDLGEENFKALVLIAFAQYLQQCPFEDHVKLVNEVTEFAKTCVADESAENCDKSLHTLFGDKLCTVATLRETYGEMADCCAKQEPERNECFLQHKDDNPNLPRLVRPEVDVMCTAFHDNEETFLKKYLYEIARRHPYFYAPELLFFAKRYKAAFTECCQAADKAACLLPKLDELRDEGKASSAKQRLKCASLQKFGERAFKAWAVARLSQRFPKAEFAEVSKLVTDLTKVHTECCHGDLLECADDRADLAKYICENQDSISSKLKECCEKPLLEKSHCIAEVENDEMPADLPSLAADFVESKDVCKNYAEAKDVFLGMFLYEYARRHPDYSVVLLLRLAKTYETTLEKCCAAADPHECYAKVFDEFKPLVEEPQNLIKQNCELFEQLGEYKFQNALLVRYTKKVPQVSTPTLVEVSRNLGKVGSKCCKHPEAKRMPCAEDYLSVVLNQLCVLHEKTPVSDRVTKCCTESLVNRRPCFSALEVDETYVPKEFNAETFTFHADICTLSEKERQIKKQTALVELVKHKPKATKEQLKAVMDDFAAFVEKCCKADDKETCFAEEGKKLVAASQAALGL

For the compound `O=C(O)CCCCCCCCCCCCCCCCC(=O)O` [C18 Diacid, octadecanedioic acid], in data set [1], the fraction unbound at 1.5 μM was 0.009 and the fraction unbound at 3 μM is 0.002. In addition, the fraction unbound at 20 μM in data set [1] (concentration 20.0 μM) is 0.026.
As to `CC[C@@]1(OC(=O)CCCCCCCCCCCCCCCCC(=O)O)C(=O)OCc2c1cc1n(c2=O)Cc2cc3ccccc3nc2-1` [CPT-FA18, Camptothecin-C18 Diacid Conjugate], the IC50 (as a rule, the concentration that gives 50% inhibition) in data set [2] (setting [3]) was 11000 nM. This counts as double-digit micromolar.
On the same count and under the same terms, next, `CC(=O)O[C@H]1C(=O)[C@@]2(C)[C@H]([C@H](OC(=O)c3ccccc3)[C@]3(O)C[C@H](OC(=O)[C@H](OC(=O)CCCCCCCCCCCCCCC(=O)O)[C@@H](NC(=O)c4ccccc4)c4ccccc4)C(C)=C1C3(C)C)[C@]1(OC(C)=O)CO[C@@H]1C[C@@H]2O` [PTX-FA16, Paclitaxel-C16 Diacid Conjugate]: 137 nM.
As to `CC(=O)O[C@H]1C(=O)[C@@]2(C)[C@H]([C@H](OC(=O)c3ccccc3)[C@]3(O)C[C@H](OC(=O)[C@H](OC(=O)CCCCCCCCCCCCCCCCC(=O)O)[C@@H](NC(=O)c4ccccc4)c4ccccc4)C(C)=C1C3(C)C)[C@]1(OC(C)=O)CO[C@@H]1C[C@@H]2O` [PTX-FA18, Paclitaxel-C18 Diacid Conjugate], in data set [1], the fraction unbound at 1.5 μM is 0.005 and the fraction unbound at 3 μM was 0.003. In data set [2] (setting [3]), this compound showed an IC50 of 64.4 nM.
On to `CC(=O)O[C@H]1C(=O)[C@@]2(C)[C@H]([C@H](OC(=O)c3ccccc3)[C@]3(O)C[C@H](OC(=O)[C@H](OC(=O)CCCCCCCCCCCCCCCCCCC(=O)O)[C@@H](NC(=O)c4ccccc4)c4ccccc4)C(C)=C1C3(C)C)[C@]1(OC(C)=O)CO[C@@H]1C[C@@H]2O` [PTX-FA20, Paclitaxel-C20 Diacid Conjugate], for which the IC50 in data set [2] (setting [3]) came out at 27.8 nM.
With `COC(=O)CCCCCCCCCCCCCCCCC(=O)NCCCCCC(=O)O[C@@H](C(=O)O[C@H]1C[C@@]2(O)[C@@H](OC(=O)c3ccccc3)[C@@H]3[C@]4(OC(C)=O)CO[C@@H]4C[C@H](O)[C@@]3(C)C(=O)[C@H](OC(C)=O)C(=C1C)C2(C)C)[C@@H](NC(=O)c1ccccc1)c1ccccc1` [PTX-FAE18-Aa, Paclitaxel-C18 Diacid Conjugate+Amino Acid Spacer], in data set [2] (Homo sapiens, 72 h, one experiment (*)), it took 2330 nM to reach half-maximal inhibition (IC50).
For `CC(=O)O[C@H]1C(=O)[C@@]2(C)[C@H]([C@H](OC(=O)c3ccccc3)[C@]3(O)C[C@H](OC(=O)[C@H](OC(=O)CCCCCCC/C=C/CCCCCCCC(=O)O)[C@@H](NC(=O)c4ccccc4)c4ccccc4)C(C)=C1C3(C)C)[C@]1(OC(C)=O)CO[C@@H]1C[C@@H]2O` [PTX-FAu18, Paclitaxel-uC18 Diacid Conjugate], in data set [2] (setting [3]), the half-maximal inhibitory concentration (IC50) was 40.1 nM.
“Methotrexate-C18 Diacid Conjugate [MTX-FA18]” gave an IC50 in data set [2] (average of at least 3 replicates) of 3010 nM.
